In PubChem BioAssay AID248 (DTP/NCI, 2004):
“And” between values parts separate entries of the source, which are not always exact repeats. Identical values can stand only once. Toxic doses and inconclusive results are not listed. Cut-off read from the data, not from the text of the source: active = T/C of 150% or more; inactive = T/C below 125%. Peptide text beside a SMILES is read from it. * marks the point of attachment. ONp = O=[N+]([O-])c1ccc(O*)cc1; Tos = Cc1ccc(S(=O)(=O)*)cc1; Cbz = O=C(OCc1ccccc1)*

Tested on: L1210 leukemia ip in BDF1 mice, survival T/C
Assay: NCI In Vivo Anticancer Drug Screen. Data for tumor model L1210 Leukemia (intraperitoneal) in B6D2F1 (BDF1) mice
Details: endpoint: mean survival time, higher = longer survival
In short: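 Tumor was transplanted into mice, which were then dosed with test compound or vehicle alone. Survival was recorded for each group, and the treated figure was expressed relative to the control figure.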

[1] = dose: 25.0 mg/kg/injection, schedule: Q01DX009 (ip), vehicle: saline with Tween-80
[2] = dose: 50.0 mg/kg/injection, schedule: Q01DX009 (ip), vehicle: saline with Tween-80
[3] = dose: 100.0 mg/kg/injection, schedule: Q01DX009 (ip), vehicle: saline with Tween-80
[4] = dose: 100.0 mg/kg/injection, schedule: Q04DX002 (ip), vehicle: Klucel (hydroxypropylcellulose) (HPC)
[5] = dose: 200.0 mg/kg/injection, schedule: Q01DX009 (ip), vehicle: saline with Tween-80
[6] = dose: 200.0 mg/kg/injection, schedule: Q04DX002 (ip), vehicle: Klucel (hydroxypropylcellulose) (HPC)
[7] = dose: 400.0 mg/kg/injection, schedule: Q01DX009 (ip), vehicle: saline with Tween-80
[8] = dose: 400.0 mg/kg/injection, schedule: Q04DX002 (ip), vehicle: Klucel (hydroxypropylcellulose) (HPC)
[9] = dose: 100.0 mg/kg/injection, schedule: Q04DX003 (ip), vehicle: saline
[10] = dose: 200.0 mg/kg/injection, schedule: Q04DX003 (ip), vehicle: saline
[11] = dose: 400.0 mg/kg/injection, schedule: Q04DX003 (ip), vehicle: saline
[12] = dose: 100.0 mg/kg/injection, schedule: Q04DX003 (ip), vehicle: Klucel (hydroxypropylcellulose) (HPC)
[13] = dose: 200.0 mg/kg/injection, schedule: Q04DX003 (ip), vehicle: Klucel (hydroxypropylcellulose) (HPC)
[14] = dose: 400.0 mg/kg/injection, schedule: Q04DX003 (ip), vehicle: Klucel (hydroxypropylcellulose) (HPC)
[15] = dose: 100.0 mg/kg/injection, schedule: Q01DX001 (ip), vehicle: saline
[16] = dose: 200.0 mg/kg/injection, schedule: Q01DX001 (ip), vehicle: saline
[17] = dose: 400.0 mg/kg/injection, schedule: Q01DX001 (ip), vehicle: saline
[18] = dose: 75.0 mg/kg/injection, schedule: Q01DX001 (ip), vehicle: saline

Measured: T/C

CC(C)(C)OC(=O)NC(CC(=O)O)C(=O)O (stereo not given)
inactive: [1] 99 % of control | [2] 89 % of control | [3] 101 % of control and 117 % of control | [4] 90 % of control | [5] 96 % of control | [6] 101 % of control | [7] 91 % of control | [8] 101 % of control

Cc1ccc(S(=O)(=O)NCC(=O)NCC(=O)Oc2ccc([N+](=O)[O-])cc2)cc1 (Tos-Gly-Gly-ONp)
inactive: dose: 100.0 mg/kg/injection, schedule: Q04DX003 (ip), vehicle: other 105 % of control | dose: 200.0 mg/kg/injection, schedule: Q04DX003 (ip), vehicle: other 102 % of control | dose: 400.0 mg/kg/injection, schedule: Q04DX003 (ip), vehicle: other 98 % of control

CC(=O)[C@@]1(O)CC[C@H]2[C@@H]3C[C@H](C)C4=CC(=O)C=C[C@]4(C)[C@@]3(F)[C@@H](O)C[C@@]21C
inactive: dose: 100.0 mg/kg/injection, schedule: Q01DX001 (sc), vehicle: steriod suspending solution 103 % of control | dose: 100.0 mg/kg/injection, schedule: Q01DX009 (sc), vehicle: steriod suspending solution 115 % of control | dose: 200.0 mg/kg/injection, schedule: Q01DX001 (sc), vehicle: steriod suspending solution 100 % of control | dose: 200.0 mg/kg/injection, schedule: Q01DX009 (sc), vehicle: steriod suspending solution 108 % of control | dose: 400.0 mg/kg/injection, schedule: Q01DX001 (sc), vehicle: steriod suspending solution 103 % of control | dose: 400.0 mg/kg/injection, schedule: Q01DX009 (sc), vehicle: steriod suspending solution 111 % of control | dose: 800.0 mg/kg/injection, schedule: Q01DX001 (sc), vehicle: steriod suspending solution 103 % of control | dose: 800.0 mg/kg/injection, schedule: Q01DX009 (sc), vehicle: steriod suspending solution 101 % of control

CO/N=C1\CC(C)N2C(=O)C(C(C)C)NC(=O)C(NC(=O)c3c4nc5c(C(=O)NC6C(=O)NC(C(C)C)C(=O)N7C(C)CC(O)C7C(=O)N(C)CC(=O)N(C)C(C(C)C)C(=O)OC6C)ccc(C)c5oc-4c(C)c(=O)c3N)C(CO)OC(=O)C(C)N(C)C(=O)CN(C)C(=O)C12 (stereo not given)
inactive: dose: 0.1 mg/kg/injection, schedule: Q01DX009 (ip), vehicle: saline + alcohol 96 % of control | dose: 0.2 mg/kg/injection, schedule: Q01DX009 (ip), vehicle: saline + alcohol 102 % of control | dose: 0.3 mg/kg/injection, schedule: Q04DX003 (ip), vehicle: saline + alcohol 96 % of control | dose: 0.4 mg/kg/injection, schedule: Q01DX009 (ip), vehicle: saline + alcohol 97 % of control | dose: 0.6 mg/kg/injection, schedule: Q04DX003 (ip), vehicle: saline + alcohol 107 % of control | dose: 0.8 mg/kg/injection, schedule: Q01DX001 (ip), vehicle: saline + alcohol 97 % of control | dose: 0.8 mg/kg/injection, schedule: Q01DX009 (ip), vehicle: saline + alcohol 111 % of control | dose: 1.2 mg/kg/injection, schedule: Q04DX003 (ip), vehicle: saline + alcohol 97 % of control | dose: 1.6 mg/kg/injection, schedule: Q01DX001 (ip), vehicle: saline + alcohol 103 % of control | dose: 1.6 mg/kg/injection, schedule: Q01DX009 (ip), vehicle: saline + alcohol 100 % of control | dose: 2.4 mg/kg/injection, schedule: Q04DX003 (ip), vehicle: saline + alcohol 112 % of control | dose: 3.2 mg/kg/injection, schedule: Q01DX001 (ip), vehicle: saline + alcohol 110 % of control | dose: 4.8 mg/kg/injection, schedule: Q04DX003 (ip), vehicle: saline + alcohol 110 % of control | dose: 6.4 mg/kg/injection, schedule: Q01DX001 (ip), vehicle: saline + alcohol 106 % of control | dose: 12.8 mg/kg/injection, schedule: Q01DX001 (ip), vehicle: saline + alcohol 101 % of control

CCCCCCCCSSCCCCCCCC
inactive: [3] 97 % of control | [9] 95 % of control | [5] 95 % of control | [10] 98 % of control | [7] 91 % of control | [11] 95 % of control

ICc1nc2ccccc2[nH]1
inactive: dose: 9.38 mg/kg/injection, schedule: Q01DX001 (ip), vehicle: steriod suspending solution 95 % of control | dose: 18.75 mg/kg/injection, schedule: Q01DX001 (ip), vehicle: steriod suspending solution 105 % of control | dose: 37.5 mg/kg/injection, schedule: Q01DX001 (ip), vehicle: steriod suspending solution 94 % of control

CCOC(=O)c1ccc(NC(=O)Sc2cccc(C)c2)cc1
inactive: [12] 93 % of control | [13] 97 % of control | [14] 96 % of control

COc1cc([N+](=O)[O-])ccc1NC(=O)c1cccc([N+](=O)[O-])c1C(=O)O
inactive: [4] 95 % of control | [6] 103 % of control | [8] 100 % of control

NC(N)=N/N=C/c1ccc(O)c(S(=O)(=O)O)c1
inactive: dose: 15.0 mg/kg/injection, schedule: Q01DX Z (ip), vehicle: saline 97 % of control | dose: 30.0 mg/kg/injection, schedule: Q01DX Z (ip), vehicle: saline 90 % of control | dose: 60.0 mg/kg/injection, schedule: Q01DX Z (ip), vehicle: saline 87 % of control | dose: 60.0 mg/kg/injection, schedule: Q01DX Z (oral), vehicle: saline 97 % of control | dose: 120.0 mg/kg/injection, schedule: Q01DX Z (ip), vehicle: saline 90 % of control | dose: 120.0 mg/kg/injection, schedule: Q01DX Z (oral), vehicle: saline 104 % of control | dose: 240.0 mg/kg/injection, schedule: Q01DX Z (oral), vehicle: saline 95 % of control | dose: 480.0 mg/kg/injection, schedule: Q01DX Z (ip), vehicle: saline 90 % of control | dose: 480.0 mg/kg/injection, schedule: Q01DX Z (oral), vehicle: saline 95 % of control

Nc1nc(=O)n(CC(=O)c2cccs2)cc1F
inactive: [1] 96 % of control | [2] 98 % of control and 87 % of control | [3] 96 % of control and 98 % of control | dose: 100.0 mg/kg/injection, schedule: Q04DX003 (ip), vehicle: saline with Tween-80 97 % of control | dose: 200.0 mg/kg/injection, schedule: Q04DX003 (ip), vehicle: saline with Tween-80 103 % of control | dose: 400.0 mg/kg/injection, schedule: Q04DX003 (ip), vehicle: saline with Tween-80 97 % of control

COc1ccccc1C(=S)N1CCOCC1
inactive: [12] 91 % of control | [13] 96 % of control | [14] 99 % of control

CCOC(=O)CNC(=O)CNC(=O)CNC(=O)OCc1ccccc1 (Cbz-Gly-Gly-Gly-OEt)
inactive: [15] 93 % of control | [16] 88 % of control | [17] 94 % of control

COCc1c(C)cc(C)cc1C
inactive: dose: 50.0 mg/kg/injection, schedule: Q01DX001 (ip), vehicle: saline 91 % of control | [15] 107 % of control | [16] 103 % of control | [17] 113 % of control

NC(N)=N/N=C/c1cc(Cl)cc(Cl)c1O
inactive: [18] 101 % of control

Cc1ccc(S(=O)(=O)N(C)c2cc(Cl)c(C(=O)O)cc2Cl)cc1
inactive: dose: 100.0 mg/kg/injection, schedule: Q04DX003 (ip), vehicle: acetone 90 % of control | dose: 200.0 mg/kg/injection, schedule: Q04DX003 (ip), vehicle: acetone 93 % of control | dose: 400.0 mg/kg/injection, schedule: Q04DX003 (ip), vehicle: acetone 90 % of control

COC(=O)C1=C(C(=O)OC)C2(C)OC1C1OC12 (stereo not given)
inactive: dose: 12.5 mg/kg/injection, schedule: Q01DX009 (ip), vehicle: Klucel (hydroxypropylcellulose) (HPC) 97 % of control | dose: 25.0 mg/kg/injection, schedule: Q01DX009 (ip), vehicle: Klucel (hydroxypropylcellulose) (HPC) 90 % of control

C/C=C/CC1(CC)C(=O)NC(=S)NC1=O
inactive: [18] 107 % of control | dose: 150.0 mg/kg/injection, schedule: Q01DX001 (ip), vehicle: saline 113 % of control

O=c1ccn(CCC(CO)CO)c(=O)[nH]1
inactive: [9] 101 % of control | [10] 106 % of control | [11] 102 % of control
